One assay deals with Staphylococcus aureus. Description: Checkerboard synergy (FICI) of antibiotics with SP-BIM. The class given is cell-based. The settings on record: Staphylococcus aureus, Staphylococcus aureus.
For another assay, the system named is Candida albicans. The assay is described as above. On the set-up: MIC SP-BIM 13 only / MIC in combination: Antibiotic / MIC antibiotic only: unit not given beside the values.
The subject of assay [1] is Klebsiella pneumoniae. Briefly: Adjuvant broth microdilution (antibiotic MIC with SP-BIM at 50 μg/mL). The class given is cell-based. The settings on record: Klebsiella pneumoniae; antibiotic alone; Table 7; read-out: MIC of antibiotic, No compound. For orientation: Broth dilution looks for growth in wells or tubes with falling amounts of substance.
Assay [2] has as its system Streptococcus pneumoniae. The description is as above. Format: cell-based. The settings on record: Streptococcus pneumoniae; Streptococcus pneumonia; antibiotic alone; Table 5; read-out: MIC of antibiotic, No compound.
The test system of assay [3] is Klebsiella pneumoniae. Description: Checkerboard synergy (FICI) of antibiotics with SP-BIM. The class given is cell-based.
The test system of the next assay is Enterococcus faecium. Described as above. Format: cell-based. The settings on record: Enterococcus faecium.
The next assay relates to Escherichia coli. Described as above.
The subject of a further assay is Bacillus cereus. Described as above. Particulars: for MIC: 24 h, antibiotic alone, read-out: MIC antibiotic only. Format: cell-based.
The subject of assay [4] is Streptococcus pneumoniae. The assay is described as above. The class given is cell-based.
The subject of another assay is MRSA. Briefly: Adjuvant broth microdilution (antibiotic MIC with SP-BIM at 50 μg/mL). Particulars: Staphylococcus aureus, antibiotic alone, Table 4, read-out: MIC of antibiotic, No compound. Format: cell-based, Staphylococcus aureus.
Another assay concerns Escherichia coli O157:H7. Description: Rescue concentrations of SP-BIM that reactivate antibiotic. Format: cell-based. Particulars: for MIC: Escherichia coli.
Where [5] appears, read: SP-BIM 9 in combination with the labelled antibiotic.
[6] abbreviates: SP-BIM 13 in combination with the labelled antibiotic.
[7] abbreviates: antibiotic in combination with SP-BIM 9.
The mark [8] stands for this setting: antibiotic in combination with SP-BIM 13.
[9] abbreviates: Streptococcus pneumoniae, antibiotic + SP-BIM 13.

Data on 4 compounds can be found in patent US12285407B2, “Bis-indolylmethane derivatives and uses thereof” (The University of The West Indies, priority 2018, dated 2025).

Each structure is given as a SMILES string. ≈ marks a conversion by molar mass, not a printed value. Where two headings read alike, the source gives them in different places.

Consider `C[C@H]1[C@H](NC(=O)/C(=N\OC(C)(C)C(=O)O)c2csc(N)n2)C(=O)N1S(=O)(=O)O` [Aztreonam, aztreonam], for which the MIC in the assay on Staphylococcus aureus (24 h, antibiotic alone, SP-BIM 9 checkerboard, read-out: MIC antibiotic only) was > 250 µg/mL; in the assay on Staphylococcus aureus (24 h, antibiotic alone, SP-BIM 13 checkerboard, read-out: MIC antibiotic only), > 250 µg/mL; in the assay with Staphylococcus aureus (MRSA, read-out: MIC of aztreonam only, MRSA, checkerboard) it was 250 µg/mL; in the assay with Candida albicans (24 h, read-out: MIC antibiotic only) it was > 250 µg/mL; in the assay with Klebsiella pneumoniae [1] it was 8 µg/mL; with Streptococcus pneumoniae [2], > 250 µg/mL. The MIC is > 250 µg/mL in the assay with Bacillus cereus (SP-BIM 9 checkerboard), 250 µg/mL with Bacillus cereus (SP-BIM 13 checkerboard) and > 250 µg/mL with MRSA. Further, the “FIC of SP-BIM 9” value with Staphylococcus aureus (setting [5]) stood at 0.12; with Klebsiella pneumoniae [3] (setting [5]), 0.064; in the assay with Escherichia coli (setting [5]), 0.5; in the assay with Bacillus cereus (setting [5]) it was 0.252. Further, the “FIC of SP-BIM 13” value in the assay with Staphylococcus aureus (setting [6]) worked out at 0.5; with Candida albicans (setting [6]), 1.0; in the assay on Klebsiella pneumoniae [3] (setting [6]), 0.3; with Enterococcus faecium (setting [6]), 1.0; with Escherichia coli (setting [6]), 1.0; in the assay on Bacillus cereus (setting [6]) it was 0.5. Besides, in the assay with Streptococcus pneumoniae [4] (Streptococcus pneumoniae, SP-BIM 13 in combination with the labelled antibiotic), the “FIC of SP-BIM 13” value worked out at 0.3. Also, the Interpretation entry was “Synergy (Synergy: FICI≤0.5)” with Staphylococcus aureus (antibiotic + SP-BIM 9); “Additive (Additive: FICI>0.5-1.0)” with Staphylococcus aureus (antibiotic + SP-BIM 13); “Indifferent (Indifferent: FICI>1.0-4.0)” in the assay on Candida albicans (antibiotic + SP-BIM 13); “Synergy (Synergy: FICI≤0.5)” in the assay with Klebsiella pneumoniae [3] (antibiotic + SP-BIM 9); “Synergy (Synergy: FICI≤0.5)” in the assay with Klebsiella pneumoniae [3] (antibiotic + SP-BIM 13); “Indifferent (Indifferent: FICI>1.0-4.0)” in the assay with Enterococcus faecium (antibiotic + SP-BIM 13). The Interpretation entry in the assay on Escherichia coli (antibiotic + SP-BIM 9) is recorded as “Synergy (Synergy: FICI≤0.5)”; in the assay on Escherichia coli (antibiotic + SP-BIM 13), “Indifferent (Indifferent: FICI>1.0-4.0)”; in the assay on Bacillus cereus (antibiotic + SP-BIM 9), “Synergy (Synergy: FICI≤0.5)”; in the assay on Bacillus cereus (antibiotic + SP-BIM 13) it was “Indifferent (Indifferent: FICI>1.0-4.0)”; in the assay on Streptococcus pneumoniae [4] (setting [9]), “Synergy (Synergy: FICI≤0.5)”. The “Σ FIC” value with Staphylococcus aureus (antibiotic + SP-BIM 9) is reported as <0.16; in the assay with Staphylococcus aureus (antibiotic + SP-BIM 13), <0.6; in the assay on Candida albicans (antibiotic + SP-BIM 13), <2.0; with Klebsiella pneumoniae [3] (antibiotic + SP-BIM 9) it was <0.1; in the assay with Klebsiella pneumoniae [3] (antibiotic + SP-BIM 13) it was <0.3; with Enterococcus faecium (antibiotic + SP-BIM 13), 2.0. In addition, the “Σ FIC” value is <0.8 in the assay with Escherichia coli (antibiotic + SP-BIM 9); <2.0 with Escherichia coli (antibiotic + SP-BIM 13); <0.5 with Bacillus cereus (antibiotic + SP-BIM 9); 1.5 in the assay with Bacillus cereus (antibiotic + SP-BIM 13); <0.00 in the assay on Streptococcus pneumoniae [4] (Streptococcus pneumonia (title: Streptococcus pyogenes), antibiotic + SP-BIM 9); <0.3 with Streptococcus pneumoniae [4] (setting [9]). For the same compound, the “MIC in combination, Antibiotic” value with Staphylococcus aureus (setting [7]) was 8.0 µg/mL; with Staphylococcus aureus (setting [8]), 32 µg/mL; with Klebsiella pneumoniae [3] (setting [7]) it was 1 µg/mL; in the assay with Klebsiella pneumoniae [3] (setting [8]) it was 8 µg/mL; in the assay with Escherichia coli (setting [7]), 32 µg/mL; in the assay with Bacillus cereus (setting [7]) it was 63 µg/mL. Further, the “MIC in combination, Antibiotic” value was 250 µg/mL in the assay on Bacillus cereus (setting [8]) and 8 µg/mL in the assay with Streptococcus pneumoniae [4] (Streptococcus pneumoniae, antibiotic in combination with SP-BIM 13). Moreover, the FIC of antibiotic stood at 0.03 with Staphylococcus aureus (in combination with SP-BIM 9); 0.1 with Staphylococcus aureus (in combination with SP-BIM 13); 1.0 in the assay with Candida albicans (combination with SP-BIM 13); 0.008 with Klebsiella pneumoniae [3] (in combination with SP-BIM 9); 0.1 with Klebsiella pneumoniae [3] (in combination with SP-BIM 13); 1.0 in the assay with Enterococcus faecium (in combination with SP-BIM 13). Moreover, the FIC of antibiotic in the assay with Escherichia coli (combination with SP-BIM 13) is 1.0; with Escherichia coli (in combination with SP-BIM 9) it was 0.256; in the assay on Bacillus cereus (in combination with SP-BIM 9), 0.252; in the assay on Bacillus cereus (in combination with SP-BIM 13), 1.00; in the assay on Streptococcus pneumoniae [4] (Streptococcus pneumoniae, in combination with SP-BIM 13), 0.1. Further, in the assay on Candida albicans (MIC of the antibiotic in combination with SP-BIM 13), the “MIC in combination: Antibiotic” value is on record as 250. The “MIC in combination, SP-BIM 9” value in the assay with Bacillus cereus (SP-BIM 9 concentration in combination with the labelled antibiotic) came out at 63 µg/mL.

`Oc1ccc2[nH]cc(C(c3ccc(Br)cc3)c3c[nH]c4ccc(O)cc34)c2c1` [SP-BIM 26, 3,3′-((4-bromophenyl)methylene)bis(1H-indol-5-ol)]: the “MIC of vancomycin in combination with […] SP-BIM 26” value in the assay on Escherichia coli O157:H7 (E. coli O157:H7) came out at 4 µg/mL. The MIC in the assay with Escherichia coli O157:H7 (read-out: MIC (single agent)) was > 250 µg/mL.

Take `Oc1ccc2[nH]cc(C(c3cc(O)c(O)c(O)c3)c3c[nH]c4ccc(O)cc34)c2c1` [SP-BIM 27, 5-(bis(5-hydroxy-1H-indol-3-yl)methyl)benzene-1,2,3-triol]: the minimal inhibitory concentration (MIC) in the assay on Escherichia coli O157:H7 (read-out: MIC of SP-BIM 27) was > 250 µg/mL.

On to `Oc1ccc2[nH]cc(C(c3cccc(Br)c3)c3c[nH]c4ccc(O)cc34)c2c1` [SP-BIM 28, 3,3′-((3-bromophenyl)methylene)bis(1H-indol-5-ol)], for which the MIC in the assay on Escherichia coli O157:H7 (read-out: MIC SP-BIM 28) stood at 250 µg/mL (≈ 577 µM).

A word on the MIC: it is the smallest concentration in the dilution series that meets the test's criterion for growth inhibition.
